Experimental data as given in ChEMBL document CHEMBL4665715, “Thienochromene derivatives inhibit pSTAT1 and pSTAT5 signaling induced by cytokines” (Bioorg Med Chem Lett, 2020).
The source made the active and inactive calls. The rule behind the calls is not given here.

Experiments:
Type in all cases: tissue-based
[1] = biological target: T1, Janus Kinase (JAK) (Homo sapiens, UniProt P52333+P23458+O60674+P29597); assay: Inhibition of JAK in human PBMC assessed as inhibition of IL2-induced STAT5 phosphorylation preincubated for 30 mins followed by addition IL2 stimulation and measured after 30 mins by ELISA
[2] = biological target: T1, Janus Kinase (JAK); assay: Inhibition of JAK in human PBMC assessed as inhibition of GM-CSF-induced STAT5 phosphorylation at 150 uM preincubated for 30 mins followed by addition […] stimulation and measured after 30 mins by ELISA
[3] = biological target: T1, Janus Kinase (JAK); assay: Inhibition of JAK in human PBMC assessed as inhibition of IL2-induced STAT5 phosphorylation at 150 uM preincubated for 30 mins followed by addition IL2 stimulation and measured after 30 mins by ELISA
[4] = biological target: T1, Janus Kinase (JAK); assay: Inhibition of JAK in human PBMC assessed as inhibition of IFNalpha-induced STAT1 phosphorylation at 150 uM preincubated for 30 mins followed by addition […] stimulation and measured after 30 mins by ELISA
[5] = biological target: T1, Janus Kinase (JAK); assay: Inhibition of JAK in human PBMC assessed as inhibition of GM-CSF-induced STAT5 phosphorylation preincubated for 30 mins followed by addition […] stimulation and measured after 30 mins by ELISA
[6] = biological target: T1, Janus Kinase (JAK); assay: Inhibition of JAK in human PBMC assessed as inhibition of IFNalpha-induced STAT1 phosphorylation preincubated for 30 mins followed by addition […] stimulation and measured after 30 mins by ELISA

IC50 [1]: 12.1 µM
inhibition [2]: Active
inhibition [3]: Active
inhibition [4]: Active
IC50 [5]: 5 µM
IC50 [6]: 11.9 µM
SMILES: CCOC(=O)c1cc2c(=O)oc3cc(O)ccc3c2s1
